The text below walks through data of article PMC6036174 (Frontiers in Microbiology, 2018).

The subject of one data set is M. tuberculosis CDC1551. The data set is described as follows: broth tube MIC (visible pellet) against M. tuberculosis CDC1551. The data set is classed as cell-based, Mycobacterium tuberculosis. Particulars: M. tuberculosis CDC1551, 14 days 37°C, no visible pellet; for MIC: read-out: MIC100.
The nature of data set [1]: VERO cell cytotoxicity (resazurin). Particulars: African green monkey, VERO (ATCC CCL-81) normal epithelial cells. Background: The colour change of resazurin is a common sign of viable cells or microbes.
Another data set relates to M. smegmatis cells. Further details: method as in Wei et al., [2003]. Particulars: ref Wei et al., [2003]; cited from earlier work.
Data set [2] can be described thus: A549 cell cytotoxicity (MTT). Particulars: human, A549 lung epithelial cells.
The subject of data set [3] is M. tuberculosis H37Rv (ATCC 27294). Description: resazurin microtiter assay, MIC against M. tuberculosis H37Rv. The data set is classed as cell-based, Mycobacterium tuberculosis. Particulars: 7 days 37°C, 90% inhibition of growth.
The subject of a further data set is M. tuberculosis H37Rv. Particulars: cited from earlier work.
Details of data set [4]: method as in Poggi et al. ([2013]). Particulars: descriptive; ref Poggi et al. ([2013]); cited from earlier work.
The next data set relates to G. mellonella larvae. Description: in vivo toxicity in Galleria mellonella larvae. Particulars: for % Mortality: 72 h post-injection; for In vivo G. mellonella tolerance order in μmol / In vivo G. mellonella tolerance order in μmol (Normalized against no. of phens): rank; for In vivo G. mellonella tolerance order in μmol: 1st = best tolerated, from Table 2; for In vivo G. mellonella tolerance order in μmol (Normalized against no. of phens): normalized with respect to phen content. How it is done:
G. mellonella larvae in the 6th developmental stage were used to determine the in vivo cytotoxicity of the test complexes (Kellett et al., [2011]; Desbois and Coote, [2012]; McCann et al., [2012]). Thirty healthy larvae, each weighing between 0.2 and 0.4 g and with no cuticle discolouration, were used for each experiment. Fresh solutions of the test complexes were prepared immediately prior to testing under sterile conditions. Test compounds (0.05 g) were dissolved in DMSO (1 mL) and added to sterile water (9 mL) to give a stock solution/suspension (5,000 μg/mL). Test solutions/suspensions were prepared from the corresponding stock solution using Millipore water only to dilute to the desired concentration and each compound was screened across the concentration range of 5,000–100 mg/L. Test solutions/suspensions (20 μL) were administered to the larvae by injection directly into the haemocoel through the last pro-leg. The base of the pro-leg can be opened by applying gentle pressure to the sides of the larvae and this aperture will re-seal after removal of the syringe without leaving a scar. Larvae were placed in sterile Petri dishes and incubated at 30°C for 72 h. The survival of the larvae was monitored every 24 h. Death was assessed by the lack of movement in response to stimulus together with discolouration of the cuticle. Three controls were employed in all assays. The first consisted of untouched larvae maintained at the same temperature as the test larvae. The second was larvae with the pro-leg pierced with an inoculation needle but no solution injected. The third control was larvae that were inoculated with 20 μL of sterile water.

The next data set concerns MDR ATCC 49967. Further details: method as in Hoffman et al., [2013]. Particulars: ref Hoffman et al., [2013]; cited from earlier work.
The next data set deals with M. tuberculosis. Further details: method as in Oliveira et al., [2004]. Particulars: based on Na3[Fe(CN)5(INH)]·4H2O; ref Oliveira et al., [2004]; cited from earlier work.
In another data set the test system is mammalian cancer cells. Further details: method as in Oliveira et al., [2004]. Particulars: ref Oliveira et al., [2004], read-out: IC50 cytotoxicity; cited from earlier work.
Data set [5] relates to VERO (ATCC CCL-81) normal epithelial cells. The data set is described as follows: VERO cell cytotoxicity (resazurin). The conditions noted are these: 24 h incubation, called CC50 in methods.
Data set [6] relates to A549 lung epithelial cells. The data set is described as follows: A549 cell cytotoxicity (MTT). Particulars: 48 h incubation, MTT, called CC50 in methods.
A short description of data set [7]: solubility in water (descriptive). The data set is classed as physicochemical.
Where [8] appears, read: Mycobacterium tuberculosis, 336 h.
The mark [9] stands for this setting: Mycobacterium tuberculosis, 168 h, read-out: MIC90.
Where [10] appears, read: M. tuberculosis H37Rv, ref Hoffman et al., [2013].
The mark [11] stands for this setting: M. tuberculosis H37Rv, ref Poggi et al. ([2013]).
[12] abbreviates: M. tuberculosis H37Rv, ref Oliveira et al., [2014].
Setting [13] is: H37Rv, ref Segura et al. ([2014]).
Setting [14] is: 40 μg per larvae (133.33 mg/kg).
Where [15] appears, read: 100 μg per larvae (333.33 mg/kg).

Broadly, the IC50 is the midpoint of a concentration-inhibition curve. The MIC90 is the lowest concentration that inhibits either 90% of growth or 90% of the strains tested, depending on the study.

Values joined by “and” are separate entries in the source; they are usually repeats but may differ in a detail not shown here. Equal values may be shown once. Read-outs that look alike come from different tables or passages of the source. Bounds are passed on as bounds.

Regarding `NNC(=O)c1ccncc1` [INH, Isoniazid, reference compound], the MIC with M. tuberculosis CDC1551 (setting [8]) is 0.44 µM and 0.06 µg/mL; with M. smegmatis cells, > 30 mg/mL and > 218.76 mM. The IC50 at 24 h in [1] was 333 µg/mL and 2.43 mM. Further, the IC50 at 48 h in [2] is 319 µg/mL and 2.33 mM. Further, the MIC90 in data set [3] (setting [9]) is 0.44 µM and 0.06 µg/mL.
As for `O=P([O-])(O)OP(=O)([O-])O.[Co+2].c1cnc2c(c1)ccc1cccnc12.c1cnc2c(c1)ccc1cccnc12` [[Co(phen)2(H2P2O7)]], the MIC in the data set with M. tuberculosis H37Rv (setting [10]) is 2.05 µM.
Regarding `NNC(=O)c1ccncc1.O.O.O.O=S(=O)([O-])[O-].[Cu+2]` [[Cu(INH)(H2O)]SO4·2H2O], the MIC with M. tuberculosis H37Rv (setting [11]) was 2.2 µM. In [4], the solubility in water result is listed as “only very sparingly soluble in water”.
`O.O=P([O-])(O)OP(=O)([O-])O.[Cu+2].c1cnc2c(c1)ccc1cccnc12` [[Cu(phen)(H2O)(H2P2O7)]]: the MIC with M. tuberculosis H37Rv (setting [10]) was 71.53 µM.
For `CNC(=S)N/N=C(\C)c1ccccn1.CNC(=S)N/N=C(\C)c1ccccn1.[Mn+2]` [[Mn(atc-Me)2]], the MIC with M. tuberculosis H37Rv (setting [12]) is 50.69 µM.
Regarding `C/C(=N\NC(=S)Nc1ccccc1)c1ccccn1.C/C(=N\NC(=S)Nc1ccccc1)c1ccccn1.[Mn+2]` [[Mn(atc-Ph)2]], the MIC with M. tuberculosis H37Rv (setting [12]) is 1.31 µM.
Consider `NC(N)=S.NC(N)=S.O=S(=O)([O-])C(F)(F)F.O=S(=O)([O-])C(F)(F)F.[Ag+].[Ag+].c1cnc2c(c1)ccc1cccnc12.c1cnc2c(c1)ccc1cccnc12` [[{Ag(phen)(μ-tu)}2]X2 (X = CF3 SO3-), [{Ag(phen)(μ-tu)}2]X2], for which the MIC in the data set with M. tuberculosis H37Rv (setting [13]) is 14.2 µM.
Take `NC(N)=S.NC(N)=S.O=[N+]([O-])[O-].O=[N+]([O-])[O-].[Ag+].[Ag+].c1cnc2c(c1)ccc1cccnc12.c1cnc2c(c1)ccc1cccnc12` [[{Ag(phen)(μ-tu)}2]X2 (X = NO3-), [{Ag(phen)(μ-tu)}2]X2]: the MIC in the data set with M. tuberculosis H37Rv (setting [13]) was 11.0 µM.
With `c1cnc2c(c1)ccc1cccnc12` [phen, 1,10-phenanthroline, reference compound], the “% Mortality” value stood at 0% in the data set on G. mellonella larvae (10 μg per larvae (33.33 mg/kg)), 80% in the data set on G. mellonella larvae (20 μg per larvae (66.67 mg/kg)), 80% in the data set on G. mellonella larvae (setting [14]) and 100% in the data set with G. mellonella larvae (setting [15]). Moreover, the larvae survived entry in the data set with G. mellonella larvae (highest administered concentration 0.1 mg (333 mg/kg) per larvae) is “all of the larvae injected at this concentration with phen died”. In the data set with G. mellonella larvae, the “In vivo G. mellonella tolerance order in μmol” value is 5th. For the same molecule, the “In vivo G. mellonella tolerance order in μmol (Normalized against no. of phens)” value in the data set on G. mellonella larvae came to 4th. The MIC in the data set with M. tuberculosis CDC1551 (setting [8]) was 3 µg/mL and 16.6 µM. Besides, the IC50 at 24 h in data set [1] was > 10 µg/mL and > 55.5 µM. The IC50 at 48 h in data set [2] was 4.3 µg/mL and 23.9 µM. Moreover, the MIC90 in data set [3] (setting [9]) was 11.2 µg/mL and 61.9 µM.
Turning to `O=P([O-])([O-])OP(=O)([O-])[O-].[Co+2].[Co+2].c1cnc2c(c1)ccc1cccnc12.c1cnc2c(c1)ccc1cccnc12.c1cnc2c(c1)ccc1cccnc12.c1cnc2c(c1)ccc1cccnc12` [{[Co(phen)2]2(μ-P2O7)}], the MIC in the data set on MDR ATCC 49967 is 2.41 µM.
As to `O=P([O-])([O-])OP(=O)([O-])[O-].[Cu+2].[Cu+2].c1cnc2c(c1)ccc1cccnc12.c1cnc2c(c1)ccc1cccnc12` [{[Cu(phen)]2(μ-P2O7)}], in the data set on MDR ATCC 49967, the MIC was 2.80 µM.
For [CoCl(INH)2(H2O)]Cl·2.5H2O, the MIC in the data set with M. tuberculosis H37Rv (setting [11]) was 0.41 µM. The solubility in water entry in data set [4] is reported as “only very sparingly soluble in water”.
Turning to [Fe(CN)5(INH)]^3−, the MIC with M. tuberculosis is 0.43 µM. Further, in the data set with mammalian cancer cells, the IC50 was over 54 µM.
Regarding “{[Mn(3,6,9-tdda)(phen)2]·3H2O·EtOH}n [compound 3]”, the “% Mortality” value in the data set on G. mellonella larvae (10 μg per larvae (33.33 mg/kg)) amounted to 0%; in the data set with G. mellonella larvae (20 μg per larvae (66.67 mg/kg)), 50%; in the data set with G. mellonella larvae (setting [14]) it was 80%; in the data set on G. mellonella larvae (setting [15]), 90%. Besides, the “In vivo G. mellonella tolerance order in μmol” value with G. mellonella larvae is on record as 2nd. Moreover, the “In vivo G. mellonella tolerance order in μmol (Normalized against no. of phens)” value with G. mellonella larvae turned out to be 2nd. Besides, the MIC100 against M. tuberculosis CDC1551 worked out at 0.75 µg/mL. Also, in the data set with M. tuberculosis CDC1551, the MIC was found to be 1.02 µM. Moreover, in [5], the “Cytotoxicity IC50 VERO cells” value was 62.5 µg/mL. Also, the IC50 in data set [5] (read-out: Cytotoxicity IC50 VERO cells) was determined as 85 µM; in data set [6] (read-out: Cytotoxicity IC50 A549 cells) it was 356 µM. Moreover, the “Cytotoxicity IC50 A549 cells” value in data set [6] turned out to be 261.67 µg/mL. In data set [7], the solubility in water result is “water-soluble”. Moreover, the MIC90 in [3] worked out at 0.56 mg/L; in [3] (read-out: MIC90), 0.76 µM.
